The text below walks through data of patent US9738653B2, “Fused furans for the treatment of hepatitis C” (BRISTOL-MYERS SQUIBB COMPANY, priority 2013, dated 2017).

Series [1] deals with T1, HCV NS5B genotype 1b (Con1) (Hepatitis C virus genotype 1b, UniProt Q9WMX2).
T1 construct: Each untagged protein was expressed with an 18 amino acid C-terminal truncation to enhance the solubility; made in house; host or cells: E. coli BL21(DE3), pET21a
Put plainly: HCV NS5B RdRp enzyme assay. It is filed as biochemical. As to conditions: 1b enzyme, 24 hours at 30° C. As to the method: The cDNA encoding NS5B proteins of HCV genotype 1b (Con1), a genotype 1b variant with amino acid 316 mutated from cysteine to asparagine, and genotype 2a (JFH-1), were cloned into the pET21a expression vector. Each untagged protein was expressed with an 18 amino acid C-terminal truncation to enhance the solubility. The E. coli competent cell line BL21(DE3) was used for expression of the protein. Cultures were grown at 37° C. for ˜4 hours until the cultures reached an optical density of 2.0 at 600 nm. The cultures were cooled to 20° C. and induced with 1 mM IPTG. Fresh ampicillin was added to a final concentration of 50 μg/mL and the cells were grown overnight at 20° C.
The lysis buffer consisted of 20 mM Tris-HCl, pH 7.4, 500 mM NaCl, 0.5% triton X-100, 1 mM DTT, 1 mM EDTA, 20% glycerol, 0.5 mg/mL lysozyme, 10 mM MgCl2, 15 ug/mL deoxyribonuclease I, and Complete™ protease inhibitor tablets (Roche). After addition of the lysis buffer, frozen cell pellets were resuspended using a tissue homogenizer. To reduce the viscosity of the sample, aliquots of the lysate were sonicated on ice using a microtip attached to a Branson sonicator. The sonicated lysate was centrifuged at 100,000×g for 30 minutes at 4° C. and filtered through a 0.2 μm filter unit (Corning).
The protein was purified using two sequential chromatography steps: Heparin sepharose CL-6B and polyU sepharose 4B. The chromatography buffers were identical to the lysis buffer but contained no lysozyme, deoxyribonuclease I, MgCl2 or protease inhibitor and the NaCl concentration of the buffer was adjusted according to the requirements for charging the protein onto the column. Each column was eluted with a NaCl gradient which varied in length from 5-50 column volumes depending on the column type. […] The enzyme was aliquoted and stored at −80° C.
An on-bead solid phase homogeneous assay was used in a 384-well format to assess NS5B inhibitors (WangY-K, Rigat K, Roberts S, and Gao M (2006) Anal Biochem, 359: 106-111). The biotinylated oligo dT12 primer was captured on streptavidin-coupled imaging beads (GE, RPNQ0261) by mixing primer and beads in 1× buffer and incubating at room temperature for three hours. Unbound primer was removed after centrifugation. The primer-bound beads were resuspended in 3× reaction mix (20 mM Hepes buffer, pH 7.5, dT primer coupled beads, poly A template, ^3H-UTP, and RNAse inhibitor (Promega N2515)). Compounds were serially diluted 1:3 in DMSO and aliquoted into assay plates. Equal volumes (5 μL) of water, 3× reaction mix, and enzyme in 3× assay buffer (60 mM Hepes buffer, pH 7.5, 7.5 mM MgCl2, 7.5 mM KCl, 3 mM DTT, 0.03 mg/mL BSA, 6% glycerol) were added to the diluted compound on the assay plate. Final concentration of components in 384-well assay: 0.36 nM template, 15 nM primer, 0.29 μM ^3H-UTP (0.3 μCi, 1.6 U/μL RNAse inhibitor, 7 nM NS5B enzyme, 0.01 mg/mL BSA, 1 mM DTT, and 0.33 μg/μL beads, 20 mM Hepes buffer, pH 7.5, 2.5 mM MgCl2, 2.5 mM KCl, and 0.1% DMSO.
Reactions were allowed to proceed for 24 hours at 30° C. and terminated by the addition of 50 mM EDTA (5 μL). After incubating for at least 15 minutes, plates were read on an Amersham LEADseeker multimodality imaging system.
IC50 values for compounds were determined using ten different [I]. IC50 values were calculated from the inhibition using the four-parameter logistic formula y=A+((B−A)/(1+((C/x)^D))), where A and B denote minimal and maximal % inhibition, respectively, C is the IC50, D is hill slope and x represents compound concentration.

For series [2], the system named is genotype 1b (Con-1) HCV replicon in Huh-7 cells. Put plainly: HCV replicon luciferase assay. It is filed as cell-based. As to conditions: 1b replicon, Renilla luciferase, 3 days incubation. The method, then: The cell lines used to evaluate compounds consist of a human hepatocyte derived cell line (Huh-7) that constitutively expresses a genotype 1b (Con-1) HCV replicon or a genotype 1b (Con-1) HCV replicon with an asparagine replacing the cysteine at amino acid 316, or a genotype 2a (JFH-1) replicon, containing a Renilla luciferase reporter gene. These cells were maintained in Dulbecco's modified Eagle medium (DMEM) containing 10% FBS, 100 U/mL penicillin/streptomycin and 1.0 mg/mL G418.
To evaluate compound efficacy, titrated compounds were transferred to sterile 384-well tissue culture treated plates, and the plates were seeded with HCV replicon cells ([…] at a density of 2.4×10^3 cells/well) in DMEM containing 4% FBS (final DMSO concentration at 0.5%). After 3 days incubation at 37° C., cells were analyzed for Renilla Luciferase activity using the EnduRen substrate (Promega cat #E6485) according to the manufacturer's directions. Briefly, the EnduRen substrate was diluted in DMEM and then added to the plates to a final concentration of 7.5 μM. The plates were incubated for at least 1 h at 37° C. then read on a Viewlux Imager (PerkinElmer) using a luminescence program. The 50% effective concentration (EC50) was calculated using the four-parameter logistic formula noted above.
On the technique in general: Replicon systems follow genome replication, usually without infectious particles.

Series [3] relates to HCV. As to conditions: cited from earlier work.
Series [4] relates to HCV. Particulars: combination therapy; cited from earlier work.

T1 sequence (Q9WMX2 2420-2992): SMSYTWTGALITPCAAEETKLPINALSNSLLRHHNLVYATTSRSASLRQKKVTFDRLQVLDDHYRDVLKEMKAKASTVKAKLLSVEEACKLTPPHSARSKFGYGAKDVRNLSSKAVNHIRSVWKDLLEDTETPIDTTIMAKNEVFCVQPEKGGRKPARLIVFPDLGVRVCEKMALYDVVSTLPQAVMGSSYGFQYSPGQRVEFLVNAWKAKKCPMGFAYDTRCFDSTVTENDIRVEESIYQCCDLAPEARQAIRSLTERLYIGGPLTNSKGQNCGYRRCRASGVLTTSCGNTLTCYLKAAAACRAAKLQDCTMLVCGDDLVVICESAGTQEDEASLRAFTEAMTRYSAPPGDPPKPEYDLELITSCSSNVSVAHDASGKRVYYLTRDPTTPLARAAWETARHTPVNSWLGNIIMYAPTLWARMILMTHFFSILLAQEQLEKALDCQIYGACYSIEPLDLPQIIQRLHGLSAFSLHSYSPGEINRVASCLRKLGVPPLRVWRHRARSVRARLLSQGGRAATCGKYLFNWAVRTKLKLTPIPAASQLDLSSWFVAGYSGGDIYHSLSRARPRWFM

As usually defined, the IC50 is the concentration that inhibits the measured activity by half. Usually EC50 stands for the concentration that produces a half-maximal response. A higher EC50 goes with a need for much substance. Regarding `CNC(=O)c1c(-c2ccc(F)cc2)oc2nc(NCC(F)F)c(-c3ccc(OC)c(C(=O)NC45CC(C4)C5)c3)cc12`, the IC50 in series [1] was 8.87 nM. The EC50 in series [2] (Hepatitis C virus, Huh-7, 72 h) came to 6.23 nM.
With `CCCc1nc2oc(-c3ccc(F)cc3)c(C(=O)NC)c2cc1-c1cccc(C(=O)NC23CC(C2)C3)c1`, in series [1], the IC50 stood at 7.73 nM. In series [2] (Hepatitis C virus, Huh-7, 72 h), this molecule came in with a 50% effective concentration (EC50) of 5.26 nM.
The matching figures for `CNC(=O)c1c(-c2ccc(F)cc2)oc2nc(NCC(F)F)c(-c3ccc(F)c(C(=O)NC45CC(C4)C5)c3)cc12`: 6.13 nM and 2.13 nM.
The like results for `CCCc1cc2oc(-c3ccc(F)cc3)c(C(=O)NC)c2cc1-c1cc(C(=O)NC23CC(C2)C3)c(F)cc1C` were, in that order, 20 nM and 30 nM.
The like results for `CCCc1cc2oc(-c3ccc(F)cc3)c(C(=O)NC)c2cc1-c1cc(C(=O)NC23CC(C2)C3)c(OC)cc1C` were, in that order, 30 nM and 30 nM.
In turn, `CNC(=O)c1c(-c2ccc(F)cc2)oc2cc(COC)c(-c3cc(C(=O)NC45CC(C4)C5)c(OC)cc3C)c(F)c12` registered an IC50 in series [1] of 30 nM. This molecule also showed an EC50 in series [2] (Hepatitis C virus, Huh-7, 72 h) of 30 nM.
In the case of `CNC(=O)c1c(-c2ccc(F)cc2)oc2cc([N+](=O)[O-])c(-c3cccc(C(=O)NC45CC(C4)C5)c3)c(F)c12`, the IC50 in series [1] was 680 nM. A half-maximal effect in series [2] (Hepatitis C virus, Huh-7, 72 h) (EC50) was put at 170 nM.
The like results for `CNC(=O)c1c(-c2ccc(F)cc2)oc2ncc(-c3ccc(F)c(C(=O)NC45CC(C4)C5)c3)cc12` were, in that order, 220 nM and 50 nM.
In series [1], `CCCc1cc2oc(-c3ccc(F)cc3)c(C(=O)NC)c2cc1-c1cccc(C(=O)NC23CC(C2)C3)c1` showed a half-maximal inhibitory concentration (IC50) of 20 nM. In series [2] (Hepatitis C virus, Huh-7, 72 h), this molecule showed an EC50 of 5.82 nM.
The like results for `CNC(=O)c1c(-c2ccc(F)cc2)oc2cc(COC)c(-c3cccc(C(=O)NC45CC(C4)C5)c3)c(F)c12` were, in that order, 210 nM and 7.88 nM.
As for `CCCc1nc2oc(-c3ccc(F)cc3)c(C(=O)NC)c2cc1-c1ccc(F)c(C(=O)NC23CC(C2)C3)c1`, half-maximal inhibition in series [1] (IC50) was put at 5.65 nM. Besides, in series [2] (Hepatitis C virus, Huh-7, 72 h), the midpoint of the response, the EC50, lay at 5.16 nM.
The molecule `CNC(=O)c1c(-c2ccc(F)cc2)oc2nc(NCC(F)F)c(-c3cccc(C(=O)NC45CC(C4)C5)c3)cc12` yielded an IC50 in series [1] of 8.63 nM. For the same molecule, the EC50 in series [2] (Hepatitis C virus, Huh-7, 72 h) was found to be 4.3 nM.
In the case of `CNC(=O)c1c(-c2ccc(F)cc2)oc2nc(CCC(F)(F)F)c(-c3cnc(OC)c(C(=O)NC45CC(C4)C5)c3)cc12`, in series [1], it took 3.65 nM to reach half-maximal inhibition (IC50). Besides, it took 6.48 nM to reach a half-maximal effect in series [2] (Hepatitis C virus, Huh-7, 72 h) (EC50).
Regarding `CNC(=O)c1c(-c2ccc(F)cc2)oc2nc(NCC(F)(F)F)c(-c3cnc(OC)c(C(=O)NC45CC(C4)C5)c3)cc12`, the half-maximal inhibitory concentration (IC50) in series [1] is 6.54 nM. In addition, in series [2] (Hepatitis C virus, Huh-7, 72 h), the midpoint of the response, the EC50, lay at 5.79 nM.
`CCN(c1nc2oc(-c3ccc(F)cc3)c(C(=O)NC)c2cc1-c1cccc(C(=O)NC23CC(C2)C3)c1)S(C)(=O)=O` registered an IC50 in series [1] of 6.8 nM. Further, the EC50 in series [2] (Hepatitis C virus, Huh-7, 72 h) stood at 2.85 nM.
Molecule `CNC(=O)c1c(-c2ccc(F)cc2)oc2cc(CC(N)=O)c(-c3cccc(C(=O)NC45CC(C4)C5)c3)cc12` registered an IC50 in series [1] of 40 nM. Further, the EC50 in series [2] (Hepatitis C virus, Huh-7, 72 h) came out at 20 nM.
The matching figures for `CNC(=O)c1c(-c2ccc(F)cc2)oc2cc(CCCO)c(-c3cccc(C(=O)NC45CC(C4)C5)c3)cc12`: 9.56 nM and 3.86 nM.
The like results for `CNC(=O)c1c(-c2ccc(F)cc2)oc2cc(CCCF)c(-c3cccc(C(=O)NC45CC(C4)C5)c3)cc12` were, in that order, 3.29 nM and 3.33 nM.
The like results for `CNC(=O)c1c(-c2ccc(F)cc2)oc2cc(CC(=O)OC)c(-c3cccc(C(=O)NC45CC(C4)C5)c3)cc12` were, in that order, 8.01 nM and 8.19 nM.
`CNC(=O)c1c(-c2ccc(F)cc2)oc2cc(CCC(F)F)c(-c3cccc(C(=O)NC45CC(C4)C5)c3)cc12` had an IC50 in series [1] of 7.19 nM. The same molecule showed an EC50 in series [2] (Hepatitis C virus, Huh-7, 72 h) of 3.89 nM.
The like results for `CNC(=O)c1c(-c2ccc(F)cc2)oc2cc(NCC(F)(F)F)c(-c3ccc(OC)c(C(=O)NC45CC(C4)C5)c3)cc12` were, in that order, 7.17 nM and 5.08 nM.
Turning to `CNC(=O)c1c(-c2ccc(F)cc2)oc2cc(N(CCO)S(C)(=O)=O)c(C3CC3)cc12` [HCV-796], the hepatic toxicity result in the series with HCV [3] (extended dosing of the combination regimens with interferon and ribavirin) is “hepatic toxicity observed”. Also, in the series with HCV [3] (patients, single agent), the “HCV RNA levels in patients” value is listed as “showed an ability to reduce HCV RNA levels in patients”.
Molecule `CCC(C)c1cc2oc(-c3ccc(F)cc3)c(C(=O)NC)c2cc1-c1cccc(C(=O)NC23CC(C2)C3)c1` (stereo not shown) [drawing 294] showed an IC50 in series [1] of 10 nM. In addition, the response in series [2] was half-maximal at 10 nM (EC50).
As for `CCC(C)c1cc2oc(-c3ccc(F)cc3)c(C(=O)NC)c2cc1-c1cccc(C(=O)NC23CC(C2)C3)c1` (stereo not shown) [drawing 304], the IC50 in series [1] was determined as 5.87 nM. The response in series [2] (Hepatitis C virus, Huh-7, 72 h) was half-maximal at 10 nM (EC50).
Take alpha-interferon and ribavirin: the “sustained efficacy, patients” value in the series on HCV [4] is 40%.
